In US9174932B2, “CaSR agonists” (AJINOMOTO CO., INC., priority 2008, dated 2015):
Blank lines part the entries; values can stand above or below the molecule they belong to.

Columns and labels:
[1] = Quantitative sensory evaluation test of kokumi-imparting activity; design: species or system human; details: for Intensity of kokumi After taste / Intensity of kokumi First-middle taste: score control 0, strong 3, very strong 5, n=4
Method: The kokumi-imparting effects can be confirmed by the method such as a gustatory test by a human being as mentioned in Examples of the present invention, but it is not limited to those.
On compounds wherein a calcium receptor activating action was found (sodium salts of Compound Nos. 1, 7 and 21), the intensity of kokumi-imparting activity was examined by a quantitative sensory evaluation test. The used compound was prepared by dissolving 525 mg of the compound No. 1 described in Synthetic Example 1 of Example I in 5 mL of distilled water, adjusting it to pH6.5 to 7 by adding 16.4 mL of 0.1M sodium hydroxide solution thereto, and freeze-drying it to obtain a sodium salt thereof. Further, the used compound was also prepared as follows. 500 mg of the compound No. 7 described in Synthetic Example 7 of Example I was suspended in 5 mL of distilled water. 1.61 mL of 1M sodium hydroxide and 0.8 mL of 2M hydrochloric acid were added thereto at 0° C. respectively to precipitate a solid substance. The precipitated solid substance was taken by filtration and dried under reduced pressure at 40° C. to obtain 426 mg of the compound No. 7. The obtained solid substance was suspended in 10 mL of distilled water. 1.2 mL of 1M sodium hydroxide was added thereto and freeze-dried to obtain a sodium salt thereof. The compound No. 21 was used in the form of a sodium salt of the compound No. 21 described in Synthetic Example 21 of Example I, which was prepared by the same method as mentioned above.
A quantitative sensory evaluation test was conducted as follows. 0.000001 to 0.1 g/dL of the compound(s) (a sodium salt of No. 1) was mixed as a sample to distilled water containing glutamic sodium (0.05 g/dL), inosine monophosphate (0.05 g/dL) and sodium chloride (0.5 g/dL). Then, the intensity of kokumi-imparting activity was examined at that time. As a reference, γ Glu-Cys-Gly and γ Glu-Val-Gly were used, each of which is a known kokumi-imparting component. As for a sample that becomes acidic to an additive-free control after dissolving the sample, it was used by being adjusted with sodium hydroxide to become within pH±0.2 to the additive-free control. As for sensory scoring, it was defined as a control: 0, strong: 3, and very strong: 5; and n=4. Meanwhile, “first-middle taste” means the taste combining first taste and middle taste. The kokumi-imparting activity was widely seen in the above addition concentrations, and the results of the representative concentrations are shown in Table 5.

human CaSR = molecular target: T1, human CaSR (Homo sapiens, UniProt P41180, E1011Q); assay: Evaluation of CaSR agonistic activity (293E cells transfected with hCaSR, Ca2+ fluorescent indicator, FLIPR); format: cell-based; details: 293E cells expressing human CaSR; concentration giving activation rate 50%
T1 construct: expressed in transfected cells; host or cells: 293E cells (HEK293 expressing EBNA1, ATCC CRL-10852), transient transfection of hCaSR/pcDNA3.1
T1 sequence (P41180 20-1078 E1011Q): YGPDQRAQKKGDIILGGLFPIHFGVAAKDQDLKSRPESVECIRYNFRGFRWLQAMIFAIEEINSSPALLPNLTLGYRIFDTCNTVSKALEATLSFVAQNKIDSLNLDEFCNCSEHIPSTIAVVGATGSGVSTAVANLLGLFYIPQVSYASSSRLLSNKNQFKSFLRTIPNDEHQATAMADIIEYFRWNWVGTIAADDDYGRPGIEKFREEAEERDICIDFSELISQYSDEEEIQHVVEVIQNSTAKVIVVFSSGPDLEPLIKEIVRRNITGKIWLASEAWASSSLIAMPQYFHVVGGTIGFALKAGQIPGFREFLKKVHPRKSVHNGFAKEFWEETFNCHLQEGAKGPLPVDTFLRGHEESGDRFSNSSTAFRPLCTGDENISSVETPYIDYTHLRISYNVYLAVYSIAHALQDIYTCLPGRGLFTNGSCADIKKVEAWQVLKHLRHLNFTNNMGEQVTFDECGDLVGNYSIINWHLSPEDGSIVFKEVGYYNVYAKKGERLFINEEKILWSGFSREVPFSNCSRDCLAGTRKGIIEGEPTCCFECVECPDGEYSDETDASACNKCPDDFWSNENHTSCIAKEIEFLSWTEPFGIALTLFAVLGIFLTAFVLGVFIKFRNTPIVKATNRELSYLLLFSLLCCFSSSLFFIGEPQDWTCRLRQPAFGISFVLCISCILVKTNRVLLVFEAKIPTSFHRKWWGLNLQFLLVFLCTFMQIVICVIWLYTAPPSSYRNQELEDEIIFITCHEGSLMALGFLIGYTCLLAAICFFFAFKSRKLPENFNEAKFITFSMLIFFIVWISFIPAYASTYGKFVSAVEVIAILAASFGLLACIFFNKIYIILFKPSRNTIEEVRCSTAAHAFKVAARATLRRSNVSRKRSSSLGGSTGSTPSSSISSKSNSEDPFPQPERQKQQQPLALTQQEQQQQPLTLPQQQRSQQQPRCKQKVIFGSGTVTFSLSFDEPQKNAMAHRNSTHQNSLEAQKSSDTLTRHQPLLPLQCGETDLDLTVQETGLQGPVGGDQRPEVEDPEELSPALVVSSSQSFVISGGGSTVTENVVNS
Method: 293E cells (HEK293 cell expressing EBNA1, ATCC No. CRL-10852) were cultured in DMEM containing 10% fetal bovine serum (Dulbecco's modified Eagle medium containing […] Glucose, by NACALAI TESQUE, INC.), in the presence of 250 μg/mL of G418. The cells were spread on a petri dish of 10 cm diameter in 1.8×10^6 cells/15 mL. After leaving them in the CO2 incubator (5% CO2, 37° C.) for 24 hours, plasmid expressing human CaSR: hCaSR/pcDNA3.1 was transfected with a transfection reagent: Mirus TransIT 293 (by Takara Bio Inc.). After leaving it in the CO2 incubator for 24 hours, the cells were collected by DMEM containing 10% fetal bovine serum and seeded on poly-D-lysine coat 384 well plate (by Falcon) in 15,000 cells/well. After leaving them in the CO2 incubator for 24 hours, the medium was removed. Then, 50 μL/well of Ca^2+ fluorescent indicator: Calcium 4 Assay Kit (by Molecular Devices) that was dissolved in an assay buffer (146 mM NaCl, 5 mM KCl, 1 mM MgSO4, 1 mg/mL Glucose, 20 mM HEPES (pH 7.2), 1.5 mM CaCl2) was added thereto, and left at 37° C. for 1 hour and at room temperature for 30 minutes to absorb the fluorescent indicator. The 384 well plate was transferred to FLIPR (by Molecular Devices). Then, 12.5 μL/well of a compound that was dissolved in a 0.1% BSA containing assay buffer was added thereto, and change in fluorescence intensity was measured for 3 minutes. Meanwhile, Compound No. 20 was purchased from Bachem.
The difference between the maximum value and the minimum value (RFU(Max−Min)) of the fluorescence intensity before and after adding a compound was automatically calculated by FLIPR. RFU(Max−Min) when adding a compound in maximum concentration was defined as 100%; and RFU(Max−Min) when adding DMSO instead of the compound in the same concentration as that of the compound was defined as 0%.

Molecule: γ Glu-Cys-Gly [γGlu-Cys-Gly, reference compound]
- Comments ([1]; Conc. 0.01 g/dL): Richness, thickness and continuity
- Intensity of kokumi After taste ([1]; Conc. 0.01 g/dL): 3.0
- Intensity of kokumi First-middle taste ([1]; Conc. 0.01 g/dL): 3.0

Molecule: N[C@@H](CCC(=O)Nc1cccc(S(=O)(=O)[O-])c1)C(=O)O.[Na+] [No.1-Na salt]
- Intensity of kokumi After taste ([1]; Conc. 0.00001 g/dL): 1.0
- Intensity of kokumi First-middle taste ([1]; Conc. 0.00001 g/dL): 0.7
- Intensity of kokumi After taste ([1]; Conc. 0.0001 g/dL): 2.0
- Intensity of kokumi First-middle taste ([1]; Conc. 0.0001 g/dL): 1.8
- Intensity of kokumi After taste ([1]; Conc. 0.0005 g/dL): 3.0
- Intensity of kokumi First-middle taste ([1]; Conc. 0.0005 g/dL): 2.6
- Comments ([1]; Conc. 0.001 g/dL): All tastes are strong, mainly
- Intensity of kokumi After taste ([1]; Conc. 0.001 g/dL): 3.6
- Intensity of kokumi First-middle taste ([1]; Conc. 0.001 g/dL): 3.2
- Comments ([1]; Conc. 0.01 g/dL): All tastes are strong.
- Intensity of kokumi After taste ([1]; Conc. 0.01 g/dL): 5.0
- Intensity of kokumi First-middle taste ([1]; Conc. 0.01 g/dL): 5.0

Molecule: γ Glu-Val-Gly [γGlu-Val-Gly, reference compound]
- Comments ([1]; Conc. 0.001 g/dL): Mellowness, richness and growth
- Intensity of kokumi After taste ([1]; Conc. 0.001 g/dL): 3.0
- Intensity of kokumi First-middle taste ([1]; Conc. 0.001 g/dL): 2.5
- Comments ([1]; Conc. 0.005 g/dL): Mellowness, richness and growth
- Intensity of kokumi After taste ([1]; Conc. 0.005 g/dL): 4.0
- Intensity of kokumi First-middle taste ([1]; Conc. 0.005 g/dL): 3.5

- EC50 (human CaSR): 7900 nM
Molecule: N[C@@H](CCC(=O)Nc1ccc(S(=O)(=O)O)c(I)c1)C(=O)O [Compound No. 40, N^5-(3-iodo-4-sulfophenyl)-L-glutamine]

- EC50 (human CaSR): 2700 nM
Molecule: N[C@@H](CCC(=O)Nc1cc(S(=O)(=O)O)cc([N+](=O)[O-])c1O)C(=O)O [Compound No. 6, N^5-(2-hydroxy-3-nitro-5-sulfophenyl)-L-glutamine]

- EC50 (human CaSR): 2300 nM
Molecule: COc1ccc(NC(=O)CC[C@H](N)C(=O)O)cc1S(=O)(=O)O [Compound No. 2, N^5-(4-methoxy-3-sulfophenyl)-L-glutamine]

Molecule: COP(=O)(O)c1cccc(NC(=O)CC[C@H](N)C(=O)O)c1 [Compound No. 17, N^5-{3-[hydroxyl(methoxy)phosphoryl]phenyl}-L-glutamine]
- EC50 (human CaSR): 2000 nM

- EC50 (human CaSR): 200 nM
Molecule: CN(C(=O)CC[C@H](N)C(=O)O)c1cccc(S(=O)(=O)O)c1 [Compound No. 12, N^5-methyl-N^5-(3-sulfophenyl)-L-glutamine]

- EC50 (human CaSR): 970 nM
Molecule: N[C@@H](CCC(=O)Nc1cccc(C(=O)O)c1Cl)C(=O)O [Compound No. 25, 2-chloro-3-(L-γ-glutamylamino)benzoic acid]

- EC50 (human CaSR): 560 nM
Molecule: COc1ccc(S(=O)(=O)O)cc1NC(=O)CC[C@H](N)C(=O)O [Compound No. 3, N^5-(2-methoxy-5-sulfophenyl)-L-glutamine]

- EC50 (human CaSR): 17 nM
Molecule: N[C@@H](CCC(=O)Nc1cccc(S(=O)(=O)O)c1O)C(=O)O [Compound No. 10, N^5-(2-hydroxy-3-sulfophenyl)-L-glutamine]

Molecule: Cc1c(Cl)cc(NC(=O)CC[C@H](N)C(=O)O)cc1S(=O)(=O)[O-].[Na+] [No.21-Na salt]
- Intensity of kokumi After taste ([1]; Conc. 0.0002 g/dL): 2.0
- Intensity of kokumi First-middle taste ([1]; Conc. 0.0002 g/dL): 1.5
- Intensity of kokumi After taste ([1]; Conc. 0.0005 g/dL): 3.1
- Intensity of kokumi First-middle taste ([1]; Conc. 0.0005 g/dL): 2.6
- Intensity of kokumi After taste ([1]; Conc. 0.001 g/dL): 3.7
- Intensity of kokumi First-middle taste ([1]; Conc. 0.001 g/dL): 3.1

- EC50 (human CaSR): 3.7 nM
Molecule: Cc1c(Cl)cc(S(=O)(=O)O)cc1NC(=O)OC[C@H](N)C(=O)O [Compound No. 35, O-{[(3-chloro-2-methyl-5-sulfophenyl)amino]carbonyl}-L-serine]

- EC50 (human CaSR): 3700 nM
Molecule: Cc1c(NC(=O)CC[C@H](N)C(=O)O)cccc1C(=O)O [Compound No. 31, 3-(L-γ-glutamylamino)-2-methyl-benzoic acid]

- EC50 (human CaSR): 130 nM
Molecule: Cc1ccc(NC(=O)CC[C@H](N)C(=O)O)cc1S(=O)(=O)O [Compound No. 5, N^5-(4-methyl-3-sulfophenyl)-L-glutamine]

- EC50 (human CaSR): 6700 nM
Molecule: N[C@@H](CCC(=O)Nc1ccc(S(=O)(=O)O)c(Cl)c1)C(=O)O [Compound No. 38, N^5-(3-chloro-4-sulfophenyl)-L-glutamine]

- EC50 (human CaSR): 3500 nM
Molecule: COc1c(NC(=O)OC[C@H](N)C(=O)O)cc(Cl)cc1S(=O)(=O)O [Compound No. 36, O-{[(5-chloro-2-methoxy-3-sulfophenyl)amino]carbonyl}-L-serine]

- EC50 (human CaSR): 530 nM
Molecule: N[C@@H](CCC(=O)Nc1cccc(P(=O)(O)O)c1)C(=O)O [Compound No. 18, N^5-(3-phosphonophenyl)-L-glutamine]

- EC50 (human CaSR): 330 nM
Molecule: N[C@@H](CCC(=O)Nc1ccc(O)c(C(=O)O)c1)C(=O)O [Compound No. 28, 6-hydroxy-3-(L-γ-glutamylamino)benzoic acid]

- EC50 (human CaSR): 940 nM
Molecule: N[C@@H](CCC(=O)Nc1ccccc1)C(=O)O [Compound No. 20, N-γ-glutamyl-aniline]

- EC50 (human CaSR): 59 nM
Molecule: Cc1cc(C)c(S(=O)(=O)O)cc1NC(=O)CC[C@H](N)C(=O)O [Compound No. 4, N^5-(2,4-dimethyl-5-sulfophenyl)-L-glutamine]
